This note sets out measurements from US5082857A, “Chemical compound” (Kyowa Hakko Kogyo Kabushiki Kaisha, priority 1989, dated 1992).

In data set [1] the test system is Sarcoma 180 tumour cells. Put plainly: Curing effect on Sarcoma 180 tumour cells. The format is in vivo, female mice of ddy strain. As to conditions: i.v., 5 times at 24 h intervals, 10 days after inoculation. Here is the method: As test animals, female mice of ddy strain (body weight about 20 g; each group consisting of 6 mice) were used. 5×10^6 Sarcoma 180 tumour cells were, on each occasion, inoculated into the animal under the skin of the armpit. From the first to 5th days after this, a dose of phosphate-buffered physiological saline (PBS; 0.2 ml) containing a given concentration of DC114-C as shown in Table 3 was intravenously given to the test animal. The administration was effected 5 times with an interval of 24 hours between each. […] 10 days after inoculation, T/C values viz. the ratio of the average volume (mm^3) of the tumours found on the animals treated with the test compounds to the corresponding volume found on the untreated animals were measured and these are shown in the following Table 3.

The nature of data set [2]: in vivo. The note with it: mouse, iv.
Data set [3] concerns Enterococcus faecium ATCC 10541. In words: Anti-bacterial activity, MIC by agar dilution method. The format is cell-based. The note with it: ATCC10541, pH 7.0, read-out: minimum inhibitory concentration (MIC). From the text:
(§1) The following Table 1 indicates minimum inhibitory concentration (MIC) of DC114-C against selected microorganisms, measured by the agar dilution method at pH 7.0.
(In general: In agar dilution the substance is mixed into plates at graded concentrations.)

For data set [4], the system named is Salmonella typhi ATCC 9992. The description is as above. The class given is cell-based. The note with it: Salmonella enterica, pH 7.0, read-out: minimum inhibitory concentration (MIC).
Description: as §1

Data set [5] has as its system Bacillus subtilis No. 10707. The data set is described as above. The format is cell-based. The note with it: pH 7.0, read-out: minimum inhibitory concentration (MIC).
Description: as §1

The subject of data set [6] is Klebsiella pneumoniae ATCC 10031. The description is as above. The format is cell-based. The note with it: ATCC10031, pH 7.0, read-out: minimum inhibitory concentration (MIC).
Description: as §1

Data set [7] concerns Staphylococcus aureus ATCC 6538P. The data set is described as above. The format is cell-based. The note with it: ATCC6538P, pH 7.0, read-out: minimum inhibitory concentration (MIC).
Description: as §1

The test system of data set [8] is Balb 3T3/H-ras cells. Put plainly: Growth inhibition against Balb 3T3/H-ras cells (neutral red). The format is cell-based. As to conditions: Mus musculus, BALB/3T3, read-out: IC50 (concentration required for 50% inhibition of the growth of the cells); 72 hours, 37° C. Here is the method: Into each well of a 96 well microtitre plate was poured a Balb 3T3/H-ras cell suspension (each 0.1 ml), containing 2×10^4 cell/ml and prepared by suspending the cells in medium A. Medium A was prepared by adding to F10 medium (commercial product of Gibco) fetal calf serum (0.1 g/ml), penicillin (100 Unit/ml) and streptomycin (100 μg/ml).
On each occasion, the plate was incubated at a temperature of 37° C. for 20 hours in a carbon dioxide incubator. Then a test sample of DC114-C was suitably diluted with medium A. The diluted sample (0.05 ml) was added to each well, followed by incubation at a temperature of 37° C. for 72 hours in the incubator. After this, the supernatant was removed from the medium. Another medium (each 0.1 ml), prepared by adding to medium A neutral red (0.02%), was added to each well. The cells were dyed by incubation at a temperature of 37° C. for one hour in the incubator.
The supernatant was removed and the residue was washed once with physiological saline. After removal of the dyestuff by using a mixture of 0.001N hydrochloric acid and 30% ethanol, a micro-plate reader was applied to the material to measure the absorbance at 550 nm. The following Table 2 indicates the results obtained by comparing the absorbance of untreated cells with the absorbance of the test sample measured at various concentrations.

A short description of data set [9]: Solubility in various solvents.

Values after ≈ are worked out from the molar mass of the structure shown.

As to `Cc1cc2c(O)c3c(cc2c2oc(C4(C)OC4C4CO4)cc(=O)c12)C(=O)C1OC1(C1CC(=O)C(O)C(C)O1)C3O` (stereo not shown) [DC114-C], the “T/C (ratio of average tumour volume, treated to untreated)” value in [1] (0.78 mg/kg each) amounted to 0.56; in [1] (1.56 mg/kg each) it was 0.48; in data set [1] (3.13 mg/kg each), 0.26; in [1] (6.25 mg/kg each) it was 0.15. Further, the LD50 (commonly the dose expected to kill half of the subjects tested) in data set [2] was 17.6 mg/kg. For the same compound, the MIC in [3] was determined as 0.13 µg/mL (≈ 0.236 µM); in data set [4], 8.3 µg/mL (≈ 15.1 µM); in [5], 0.26 µg/mL (≈ 0.472 µM); in data set [6], 4.2 µg/mL (≈ 7.63 µM); in [7] it was 0.07 µg/mL (≈ 0.127 µM). Also, the IC50 in data set [8] stood at 0.06 µg/mL (≈ 0.109 µM). Besides, the “Solubility in chloroform, dimethylsulfoxide (DMSO), methanol, ethyl acetate and acetone” value in data set [9] (chloroform, DMSO, methanol, ethyl acetate, acetone) is on record as “Readily soluble”. In addition, the “Solubility in water and n-hexane” value in data set [9] (water, n-hexane) is recorded as “Hardly soluble”.
